Reference: US11774455B2, “Peptide aptamer for specific recognition of arginine and its application” (INSTITUTE OF SUBTROPICAL AGRICULTURE, CHINESE ACADEMY OF …, priority 2019, dated 2023)

How the values were obtained:
[1] = Isothermal titration calorimeter binding to other amino acids; conditions: amino acids having a similar structure to L-arginine
[2] = Binding verification by isothermal titration calorimeter with L-arginine; conditions: ITC; 10 μM peptide aptamer titrated into 1 μM L-arginine, 10 mM PBS, pH 7.4, 37° C.; read-out: binding parameter Kd value
Experimental: In the present invention, a primary sequence of an L-arginine sensing protein which can be recognized with L-arginine is obtained by searching for the L-arginine sensing proteins and transporters from a protein library, followed by cutting the primary sequence of the L-arginine sensing protein into 8 amino acid residues to obtain a peptide library and removing repeated peptide sequences from the peptide library. Next, a molecular simulation is performed on the peptides in the deduplicated peptide library and L-arginine to obtain a peptide aptamer library that can specifically bind to the arginine, and preferably, the peptide aptamer library is selected for experimental verification. Then, a binding verification is carried out on the peptide aptamer library and the arginine by an isothermal titration calorimeter. A verification method is as follows: 1 μM of the L-arginine is titrated with 10 μM of the peptide aptamer, a solvent and a binding buffer is 10 mM PBS buffer, pH is 7.4, and a binding temperature is 37° C., and the peptide aptamer that can specifically bind to the L-arginine can be determined.
Molecular simulation and binding verification of a peptide aptamer with L-arginine • A) Molecular simulation of the peptide aptamer and the L-arginine: AutoDock is used to place the L-arginine on the active site of the peptide aptamer, and its binding mode is predicted. […]

For FGHIHEGY [peptide aptamer], the “binding ability to other amino acids (ITC)” value [1] was “no or very weak binding ability” and the Kd [2] was 13.3 µM.
